Here are results for 8 compounds from PubChem BioAssay (NCI).

Among the test systems are U251 CNS; CCRF-CEM leukemia; NCI-H522 lung; MCF7 breast; HL-60(TB) leukemia; OVCAR-5 ovarian; KM12 colon; M14 melanoma; NCI-H23 lung; OVCAR-8 ovarian.
Test in all cases: NCI anticancer screen, dose series, 48 h

Where “and” joins values, the source holds several entries; their conditions need not be identical. Equal entries are not always repeated.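 Following 48 hours of exposure in 96-well plates, responses at five concentrations were used to interpolate endpoints linearly. Abbreviation: GI50, concentration required for 50% inhibition of growth. TGI: total growth inhibition.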

With `C=C1C[C@@H](O)[C@@H](Br)C(C)(C)[C@]12CCC(C)(Br)C(Cl)C2` (some centres not stated), the GI50 was 17.7 µM in the assay with U251 CNS; 1.05 µM with CCRF-CEM leukemia; 17.4 µM in the assay with NCI-H522 lung; 16.8 µM in the assay with MCF7 breast; 1.23 µM with OVCAR-5 ovarian; 0.28 µM in the assay on KM12 colon. Besides, the GI50 was 17.9 µM in the assay with M14 melanoma, 18.7 µM in the assay on NCI-H23 lung and 21.7 µM in the assay with OVCAR-8 ovarian. The TGI in the assay on U251 CNS is > 50 µM and 31.5 µM; in the assay on CCRF-CEM leukemia, > 50 µM and 14.4 µM; with NCI-H522 lung it was > 50 µM and 32.1 µM; in the assay on MCF7 breast, > 50 µM and 31.1 µM; with HL-60(TB) leukemia, 11.8 µM; in the assay on OVCAR-5 ovarian it was 26.6 µM and 8.52 µM. Also, the TGI is 16.7 µM and 10.5 µM in the assay on KM12 colon; > 50 µM and 34.6 µM with M14 melanoma; > 50 µM and 37.5 µM in the assay with NCI-H23 lung; > 50 µM and 50.1 µM in the assay on OVCAR-8 ovarian.

For the compound `COc1ccc2nc3cc(Cl)ccc3c(NCCNCC(O)CO)c2c1` (configuration not stated), the GI50 was 1.55 µM with U251 CNS; 1.69 µM in the assay on CCRF-CEM leukemia; 0.984 µM with NCI-H522 lung; 0.624 µM with MCF7 breast; 2.83 µM with HL-60(TB) leukemia; 2.16 µM in the assay with OVCAR-5 ovarian. Further, the GI50 is 1.66 µM in the assay on KM12 colon, 2.79 µM in the assay with M14 melanoma, 1.62 µM in the assay with NCI-H23 lung and 1.17 µM with OVCAR-8 ovarian. Further, the TGI came to 10.8 µM in the assay on U251 CNS; 13.8 µM in the assay on CCRF-CEM leukemia; 3.93 µM with NCI-H522 lung; 10.1 µM in the assay on MCF7 breast; 7 µM in the assay with HL-60(TB) leukemia; 11.2 µM in the assay on OVCAR-5 ovarian. Moreover, the TGI in the assay on KM12 colon was 10.7 µM; in the assay with M14 melanoma it was 10.9 µM; in the assay with NCI-H23 lung, 7.87 µM; in the assay with OVCAR-8 ovarian, 11.7 µM.

On to `COC(=O)[C@H](Cc1ccccc1)NNC(=O)c1csc([C@@H](C[C@H](C(C)C)N(C)C(=O)[C@@H](NC(=O)[C@H]2CCCCN2C)C2CC2)OC(C)=O)n1`, for which the TGI in the assay with U251 CNS was 25 µM and > 100 µM; in the assay with CCRF-CEM leukemia it was 25 µM and > 100 µM; in the assay with MCF7 breast, 25 µM and > 100 µM; in the assay with HL-60(TB) leukemia, 0.00596 µM; with OVCAR-5 ovarian, 25 µM and > 100 µM; with KM12 colon it was 25 µM and > 100 µM. The TGI in the assay on M14 melanoma was 25 µM; with NCI-H23 lung, 25 µM and > 100 µM; in the assay on OVCAR-8 ovarian it was 25 µM and > 100 µM. For the same compound, the GI50 in the assay with CCRF-CEM leukemia is 0.00377 µM and 0.0025 µM and 0.0213 µM; with NCI-H522 lung, 0.00154 µM and 0.0144 µM; in the assay with MCF7 breast, 0.00392 µM and 0.0025 µM and 0.0244 µM; in the assay on HL-60(TB) leukemia, 0.0013 µM; with M14 melanoma, 0.0112 µM and 0.0025 µM.

For `Nc1nc(=S)c2ncn(C3OC(CO)C(O)C3O)c2[nH]1` (configuration not stated), the GI50 is 6.5 µM in the assay with U251 CNS; 0.318 µM in the assay on CCRF-CEM leukemia; 1.8 µM in the assay on NCI-H522 lung; 0.389 µM in the assay with MCF7 breast; 1.67 µM in the assay with HL-60(TB) leukemia; 0.827 µM in the assay with OVCAR-5 ovarian. The GI50 in the assay with KM12 colon is 1.79 µM; in the assay with M14 melanoma it was 0.304 µM; in the assay on NCI-H23 lung, 0.776 µM; in the assay with OVCAR-8 ovarian it was 0.903 µM. Moreover, the TGI in the assay with U251 CNS was over 100 µM; in the assay with CCRF-CEM leukemia, over 68.2 µM; in the assay with NCI-H522 lung, over 100 µM; with MCF7 breast it was over 70.6 µM; in the assay with HL-60(TB) leukemia it was 11 µM; in the assay with OVCAR-5 ovarian, over 100 µM. The TGI with KM12 colon is over 27.8 µM; in the assay with M14 melanoma it was 3.13 µM; with NCI-H23 lung, over 100 µM; with OVCAR-8 ovarian, over 100 µM.

For the compound `COC(=O)CC1C2(C)C3=C(C)C(c4ccoc4)CC3OC2C2OC(=O)C3(C)C=CC(=O)C1(C)C23` (configuration not stated), the TGI with U251 CNS was found to be 2.95 µM; with CCRF-CEM leukemia it was 2.17 µM; with NCI-H522 lung it was 3.22 µM; with MCF7 breast it was 1.95 µM; in the assay on HL-60(TB) leukemia it was 2.76 µM; in the assay with OVCAR-5 ovarian, 5.44 µM. The TGI in the assay on KM12 colon was 3.55 µM; in the assay with M14 melanoma it was 3.25 µM; in the assay on NCI-H23 lung, 3.52 µM; in the assay on OVCAR-8 ovarian, 5.44 µM.

For the compound `CC(=O)NC(CS)C(=O)O` (configuration not stated), the GI50 in the assay with U251 CNS, in the assay on NCI-H522 lung, in the assay on MCF7 breast, in the assay on HL-60(TB) leukemia, in the assay on OVCAR-5 ovarian and with KM12 colon was over 100 µM throughout. The GI50 with M14 melanoma, with NCI-H23 lung and in the assay with OVCAR-8 ovarian was over 100 µM each time. Also, the TGI is over 100 µM in the assay on U251 CNS; over 100 µM with CCRF-CEM leukemia; > 100 µM and 46300 µM in the assay with NCI-H522 lung; > 100 µM and 71300 µM with MCF7 breast; over 100 µM in the assay on HL-60(TB) leukemia; > 100 µM and 66200 µM with OVCAR-5 ovarian. In addition, the TGI with KM12 colon is > 100 µM and 98100 µM; with M14 melanoma, > 100 µM and 35500 µM; with NCI-H23 lung it was > 100 µM and 62700 µM; with OVCAR-8 ovarian, > 100 µM and 88800 µM.

In the case of `CCOC(=O)Nc1ccc2nc(N3CCCCCC3)sc2c1`, the GI50 with U251 CNS is 1.09 µM; in the assay on CCRF-CEM leukemia it was 1.97 µM; in the assay on NCI-H522 lung, 1.83 µM; in the assay on MCF7 breast it was 0.857 µM; in the assay on HL-60(TB) leukemia it was 0.436 µM; in the assay on OVCAR-5 ovarian, 8.28 µM. Also, the GI50 is 0.661 µM with KM12 colon, 0.719 µM in the assay on M14 melanoma, 7.95 µM in the assay on NCI-H23 lung and 4.51 µM in the assay on OVCAR-8 ovarian. The TGI with U251 CNS is over 100 µM; with CCRF-CEM leukemia, over 100 µM; with NCI-H522 lung, 13.2 µM; with MCF7 breast it was over 80.6 µM; with HL-60(TB) leukemia it was 21 µM; with OVCAR-5 ovarian it was over 100 µM. The TGI with KM12 colon was over 57.5 µM; in the assay with M14 melanoma, over 70.4 µM; in the assay with NCI-H23 lung, over 100 µM; in the assay with OVCAR-8 ovarian, over 63.4 µM.

In the case of `COc1ccc(/C(=C/c2ccc3ccccc3c2)c2nn[nH]n2)cc1OC`, the GI50 was 4.46 µM in the assay on U251 CNS; 3.33 µM with CCRF-CEM leukemia; 1.14 µM with NCI-H522 lung; 4.12 µM in the assay on MCF7 breast; 2.56 µM with HL-60(TB) leukemia; 6.08 µM in the assay on OVCAR-5 ovarian. In addition, the GI50 with KM12 colon is 2.79 µM; in the assay with M14 melanoma, 1.9 µM; in the assay with NCI-H23 lung, 5.29 µM; with OVCAR-8 ovarian, 7.1 µM. Moreover, the TGI in the assay on U251 CNS was over 100 µM; with CCRF-CEM leukemia, over 100 µM; in the assay with NCI-H522 lung, 35.8 µM; with MCF7 breast it was over 100 µM; with HL-60(TB) leukemia it was 6.94 µM; with OVCAR-5 ovarian, over 100 µM. Also, the TGI with KM12 colon, with M14 melanoma, in the assay with NCI-H23 lung and with OVCAR-8 ovarian was over 100 µM in each case.
